The values that follow come from ChEMBL document CHEMBL5357077, “Synthesis and Biological Evaluation of β-Lactam Derivatives Targeting Speckle-Type POZ Protein (SPOP)” (ACS Med Chem Lett, 2024).

SMILES strings stand for the structures. Calls of active or inactive are those of the source. The rule behind the calls is not given here.

By IC50 is commonly meant the concentration at which inhibition is half-maximal. In general, Kd refers to the equilibrium constant for the complex coming apart.

Data set [1] concerns the target T1, Speckle-type POZ protein (Homo sapiens, UniProt O43791). As to the kind of experiment: Inhibition of GST-tagged human SPOP MATH domain (28 to 166 residues) expressed in Escherichia coli BL21 CodonPlus (DE3)-RIPL cells using FITC-LACDEVTSTTSSSTA peptide as substrate assessed as inhibition of substrate binding to SPOP preincubated with compound for 30 mins followed by substrate addition and measured immediately by fluorescence polarization assay. A general note: Fluorescence polarisation rises when a labelled molecule tumbles more slowly, as on binding a larger partner.

In another data set the test system is HK-2. As to the kind of experiment: Cytotoxicity against HK-2 cells assessed as inhibition of cell proliferation measured after 72 hrs by Celltiter Glo luminescent cell viability assay. In kind it is toxicity, cell-based. The note with it: human, hk-2, 72 h.
For the next data set, the system named is OS-RC-2. As to the kind of experiment: Inhibition of colony formation in human OS-RC-2 cells at 0.4 to 50 uM incubated for 10 to 14 days by crystal violet staining based imaging analysis. Format: functional, cell-based. The note with it: dose 0.4-50 µM, time 10-14 day.
For data set [2], the target named is T1, Speckle-type POZ protein. The data set can be described thus: Binding affinity to GST-tagged human SPOP MATH domain (28 to 166 residues) expressed in Escherichia coli BL21 CodonPlus (DE3)-RIPL cells assessed as equilibrium dissociation constant by SPR analysis. On the technique in general: In SPR one partner is held on a chip, and binding of the other changes the refractive index at the surface.

The subject of data set [3] is 786-0. As to the kind of experiment: Antiproliferative activity against human 786-0 cells assessed as inhibition of cell proliferation measured after 72 hrs by Celltiter Glo luminescent cell viability assay. Format: functional, cell-based.
The subject of another data set is 769-P. The data set can be described thus: Inhibition of colony formation in human 769-P cells at 0.4 to 50 uM incubated for 10 to 14 days by crystal violet staining based imaging analysis. Format: functional, cell-based. The note with it: dose 0.4-50 µM, time 10-14 day.
Data set [4] has as its target T1, Speckle-type POZ protein. The data set can be described thus: Inhibition of GST-tagged human SPOP MATH domain (28 to 166 residues) expressed in Escherichia coli BL21 CodonPlus (DE3)-RIPL cells using Myc-DUSP7 as substrate assessed as disruption of SPOP binding to substrate at 1 to 40 uM incubated for 2 hrs by GST pull-down assay. The note with it: dose 1-40 µM.

The test system of data set [5] is 786-0. The data set can be described thus: Inhibition of colony formation in human 786-0 cells at 0.4 to 50 uM incubated for 10 to 14 days by crystal violet staining based imaging analysis. Format: functional, cell-based. As to conditions: dose 0.4-50 µM, time 10-14 day.
Data set [6] deals with T1, Speckle-type POZ protein. As to the kind of experiment: Potency index, ratio of 230D7 IC50 to test compound IC50 for inhibition of GST-tagged human SPOP MATH domain (28 to 166 residues) expressed in Escherichia coli BL21 CodonPlus (DE3)-RIPL cells using FITC-LACDEVTSTTSSSTA peptide as substrate assessed as inhibition of substrate binding to SPOP preincubated with compound for 30 mins followed by substrate addition and measured immediately by fluorescence polarization assay.

For data set [7], the target named is T1, Speckle-type POZ protein. The data set can be described thus: Inhibition of GST-tagged human SPOP MATH domain (28 to 166 residues) expressed in Escherichia coli BL21 CodonPlus (DE3)-RIPL cells using Myc-PTEN as substrate assessed as disruption of SPOP binding to substrate at 1 to 40 uM incubated for 2 hrs by GST pull-down assay. The note with it: dose 1-40 µM.

Another data set concerns A498. The data set can be described thus: Inhibition of colony formation in human A498 cells at 0.4 to 50 uM incubated for 10 to 14 days by crystal violet staining based imaging analysis. In kind it is functional, cell-based. The note with it: dose 0.4-50 µM, time 10-14 day.

T1 sequence (O43791 whole entry, the tested form may be a part): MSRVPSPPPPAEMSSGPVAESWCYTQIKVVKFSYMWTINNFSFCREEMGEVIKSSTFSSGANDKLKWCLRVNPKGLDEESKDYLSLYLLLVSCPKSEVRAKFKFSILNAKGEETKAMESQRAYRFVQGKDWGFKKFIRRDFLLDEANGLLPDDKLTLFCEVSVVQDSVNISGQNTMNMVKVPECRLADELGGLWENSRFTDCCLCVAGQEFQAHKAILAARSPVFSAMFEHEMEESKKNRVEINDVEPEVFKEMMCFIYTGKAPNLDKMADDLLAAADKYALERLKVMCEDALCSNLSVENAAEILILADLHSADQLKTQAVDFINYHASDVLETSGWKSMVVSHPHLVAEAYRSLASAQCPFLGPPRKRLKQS

As to `CC(=O)OCC1=C(C(=O)O)N2C(=O)[C@@H](NC(=O)c3ccc(COc4ccc(Br)cc4Cl)o3)[C@H]2SC1`, the IC50 on Speckle-type POZ protein [1] was found to be 12.5 µM. As to `C=CC1=C(C(=O)O)N2C(=O)[C@@H](NC(=O)c3ccc(COc4ccccc4Cl)o3)[C@H]2SC1`, on Speckle-type POZ protein [1], the IC50 is over 100 µM. Turning to `C[C@H]1[C@H](NC(=O)c2ccc(COc3ccc(Br)cc3Cl)o2)C(=O)N1S(=O)(=O)O`, on Speckle-type POZ protein [1], the concentration for half-maximal inhibition (IC50) is over 100 µM. On to `C=CC1=C(C(=O)O)N2C(=O)[C@@H](NC(=O)c3cccc(COc4ccc(Br)cc4Cl)c3)[C@H]2SC1`, for which the 50% inhibitory concentration (IC50) on Speckle-type POZ protein [1] came out at 30.1 µM. In the case of `CC1(C)S[C@@H]2[C@H](NC(=O)c3ccc(COc4ccc(Br)cc4Cl)o3)C(=O)N2[C@H]1C(=O)O`, at Speckle-type POZ protein [1], the half-maximal inhibitory concentration (IC50) came to 20.5 µM.

As to `C=CC1=C(C(=O)O)N2C(=O)[C@@H](NC(=O)c3ccc(Cl)o3)[C@H]2SC1`, at Speckle-type POZ protein [1], the IC50 is over 100 µM. As to `C=CC1=C(C(=O)O)N2C(=O)[C@@H](NC(=O)c3ccc(COc4ccc(Br)cc4)o3)[C@H]2SC1`, on Speckle-type POZ protein [1], the IC50 was over 100 µM. As to `C=CC1=C(C(=O)O)N2C(=O)[C@@H](NC(=O)c3ccc(CBr)o3)[C@H]2SC1`, the IC50 on Speckle-type POZ protein [1] is over 100 µM. On the same count and under the same terms, for `C=CC1=C(C(=O)O)N2C(=O)[C@@H](NC(=O)c3ccc(C(=O)OC)o3)[C@H]2SC1` the value was over 100 µM. As to `C=CC1=C(C(=O)O)N2C(=O)[C@@H](NC(=O)c3ccc(COC)o3)[C@H]2SC1`, the IC50 at Speckle-type POZ protein [1] is 26 µM. `C=CC1=C(C(=O)O)N2C(=O)[C@@H](NC(=O)c3ccc(CNc4ccc(Br)cc4Cl)o3)[C@H]2SC1`: the IC50 on Speckle-type POZ protein [1] is over 100 µM.

Take `C=CC1=C(C(=O)O)N2C(=O)[C@@H](NC(=O)c3ccc(COc4c(C)cc(Br)cc4Cl)o3)[C@H]2SC1`: the IC50 at Speckle-type POZ protein [1] is over 100 µM. In the case of `C=CC1=C(C(=O)O)N2C(=O)[C@@H](NC(=O)c3ccc(CCl)o3)[C@H]2SC1`, the Activity result in the data set with HK-2 is on record as “Non-Toxic”. The inhibition result in the data set on OS-RC-2, with 769-P, on Speckle-type POZ protein [4], in the data set with 786-0 [5], on Speckle-type POZ protein [7] and with A498 was “Active” throughout. Besides, on Speckle-type POZ protein [2], the Kd stood at 1.54 µM. Further, the result in the data set on 786-0 [3] was Active. For the same molecule, the IC50 on Speckle-type POZ protein [1] came out at 0.58 µM. Moreover, at Speckle-type POZ protein [6], the Ratio IC50 came to 22. Regarding `C=CC1=C(C(=O)O)N2C(=O)[C@@H](NC(=O)c3ccc(COCc4ccc(Br)cc4Cl)o3)[C@H]2SC1`, on Speckle-type POZ protein [1], the half-maximal inhibitory concentration (IC50) was 66 µM. For the molecule `C=CC1=C(C(=O)O)N2C(=O)[C@@H](NC(=O)c3ccc(COCC)o3)[C@H]2SC1`, the IC50 at Speckle-type POZ protein [1] was over 100 µM. On to `C/C=C/C1=C(C(=O)O)N2C(=O)[C@@H](NC(=O)c3ccc(COc4ccc(Br)cc4Cl)o3)[C@H]2SC1`, for which, at Speckle-type POZ protein [1], the IC50 is 52.6 µM.

For `COCC1=C(C(=O)O)N2C(=O)[C@@H](NC(=O)c3ccc(COc4ccc(Br)cc4Cl)o3)[C@H]2SC1`, the half-maximal inhibitory concentration (IC50) on Speckle-type POZ protein [1] is over 100 µM. For the molecule `CC1=C(C(=O)O)N2C(=O)[C@@H](NC(=O)c3ccc(COc4ccc(Br)cc4Cl)o3)[C@H]2SC1`, the IC50 on Speckle-type POZ protein [1] was over 100 µM. Take `O=C(O)C1=C(CO)CS[C@@H]2[C@H](NC(=O)c3ccc(COc4ccc(Br)cc4Cl)o3)C(=O)N12`: the IC50 at Speckle-type POZ protein [1] was over 100 µM. As to `C=CC1=C(C(=O)O)N2C(=O)[C@@H](NC(=O)c3ccc(COc4ccc(Br)cc4Cl)o3)[C@H]2SC1`, at Speckle-type POZ protein [1], the IC50 is 5.35 µM. Further, the Ratio IC50 on Speckle-type POZ protein [6] was 3. Consider `C=CC1=C(C(=O)O)N2C(=O)[C@@H](NC(=O)c3ccc(C)o3)[C@H]2SC1`, for which, on Speckle-type POZ protein [1], the IC50 was 20.7 µM. For `C=CC1=C(C(=O)O)N2C(=O)[C@@H](NC(=O)c3ccc(COc4cccnc4)o3)[C@H]2SC1`, the IC50 on Speckle-type POZ protein [1] turned out to be 74.4 µM. As to `C=CC1=C(C(=O)O)N2C(=O)[C@@H](NC(=O)c3ccc(COc4cccc(Cl)c4)o3)[C@H]2SC1`, the IC50 at Speckle-type POZ protein [1] is over 100 µM. Turning to `C=CC1=C(C(=O)O)N2C(=O)[C@@H](NC(=O)c3ccc(COc4ccc(F)cc4)o3)[C@H]2SC1`, the concentration for half-maximal inhibition (IC50) on Speckle-type POZ protein [1] came out at 7.03 µM.

For the molecule `C=CC1=C(C(=O)O)N2C(=O)[C@@H](NC(=O)c3ccc(COc4ccc(C#N)cc4Cl)o3)[C@H]2SC1`, the IC50 on Speckle-type POZ protein [1] worked out at 11.7 µM. For `C=CC1=C(C(=O)O)N2C(=O)[C@@H](NC(=O)c3ccc(C(=O)Nc4ccc(Br)cc4Cl)o3)[C@H]2SC1`, the IC50 at Speckle-type POZ protein [1] is 52.1 µM. The same measure, in the same setting: to `C=CC1=C(C(=O)O)N2C(=O)[C@@H](NC(=O)c3ccc(CO)o3)[C@H]2SC1` belongs over 100 µM; to `C=CC1=C(C(=O)O)N2C(=O)[C@@H](NC(=O)c3ccc(COc4ccc(Br)cc4Cl)s3)[C@H]2SC1`, 15.1 µM; to `C=CC1=C(C(=O)O)N2C(=O)[C@@H](NC(=O)c3ccc(COc4ccc(C#N)cc4)o3)[C@H]2SC1`, over 100 µM. Consider `O=C(O)C1=C(Cl)CS[C@@H]2[C@H](NC(=O)c3ccc(COc4ccc(Br)cc4Cl)o3)C(=O)N12`, for which the IC50 on Speckle-type POZ protein [1] is 53.3 µM. For the molecule `O=C(O)C1=CCS[C@@H]2[C@H](NC(=O)c3ccc(COc4ccc(Br)cc4Cl)o3)C(=O)N12`, on Speckle-type POZ protein [1], the IC50 worked out at 42.1 µM. As for `C=CC1=C(C(=O)O)N2C(=O)[C@@H](NC(=O)c3ccc(COc4ccc(F)cc4Cl)o3)[C@H]2SC1`, the IC50 at Speckle-type POZ protein [1] worked out at 98 µM. Still for that read-out and setting: for `Cc1nnc(SCC2=C(C(=O)O)N3C(=O)[C@@H](NC(=O)c4ccc(COc5ccc(Br)cc5Cl)o4)[C@H]3SC2)s1` the value was 32.3 µM. On to `C=CC1=C(C(=O)O)N2C(=O)[C@@H](NC(=O)c3ccc(Br)o3)[C@H]2SC1`, for which, at Speckle-type POZ protein [1], the IC50 is over 100 µM. On the same count and under the same terms, for `C=CC1=C(C(=O)O)N2C(=O)[C@@H](NC(=O)c3ccc(COc4ccc(Cl)cc4Br)o3)[C@H]2SC1` the value was over 100 µM; for `C=CC1=C(C(=O)O)N2C(=O)[C@@H](NC(=O)c3ccco3)[C@H]2SC1`, 81.2 µM; for `Cn1nnnc1SCC1=C(C(=O)O)N2C(=O)[C@@H](NC(=O)c3ccc(COc4ccc(Br)cc4Cl)o3)[C@H]2SC1`, 34.6 µM. In the case of `C=CC1=C(C(=O)O)N2C(=O)[C@@H](NC(=O)c3ccc(COc4ccccc4)o3)[C@H]2SC1`, the IC50 at Speckle-type POZ protein [1] worked out at 6.33 µM. Further, the Ratio IC50 on Speckle-type POZ protein [6] is 2. For `C=CC1=C(C(=O)O)N2C(=O)[C@@H](NC(=O)c3ccc(CF)o3)[C@H]2SC1`, on Speckle-type POZ protein [1], the IC50 was determined as 20.9 µM.
